{"source": "paper PMC3344892", "about": "“NAD-Independent L-Lactate Dehydrogenase Is Required for L-Lactate Utilization in Pseudomonas stutzeri SDM” (PLoS ONE, 2012)", "key": {"[1]": {"molecular_target": "T1, L-iLDH (NAD-independent L-lactate dehydrogenase) from P. stutzeri SDM (Stutzerimonas stutzeri, UniProt I1SLB1)", "T1 construct": "gene lldD; full-length lldD in pETDuet-1 (HindIII/XhoI), expressed in E. coli C43(DE3), HisTrap purified (tag not described); also purified natively from membrane with Triton X-100; one FMN per subunit", "T1 sequence (I1SLB1 1-391)": "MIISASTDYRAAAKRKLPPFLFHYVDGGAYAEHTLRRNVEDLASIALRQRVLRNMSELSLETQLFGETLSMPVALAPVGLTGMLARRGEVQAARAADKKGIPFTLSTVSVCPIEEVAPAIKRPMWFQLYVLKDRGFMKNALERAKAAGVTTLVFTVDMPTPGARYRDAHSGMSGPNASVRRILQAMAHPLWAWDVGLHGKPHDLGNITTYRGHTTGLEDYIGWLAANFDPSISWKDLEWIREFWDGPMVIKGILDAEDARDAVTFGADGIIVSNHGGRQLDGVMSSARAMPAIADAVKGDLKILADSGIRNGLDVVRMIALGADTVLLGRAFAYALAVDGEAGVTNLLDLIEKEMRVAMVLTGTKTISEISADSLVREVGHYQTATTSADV", "assay": "MTT reduction at […] nm, double-reciprocal plots", "type": "biochemical"}, "[2]": {"molecular_target": "T1, L-iLDH (NAD-independent L-lactate dehydrogenase) from P. stutzeri SDM", "assay": "HPLC of flavin released by boiling; UV-visible spectrum", "type": "binding", "conditions": "native enzyme purified from membrane; recombinant enzyme similar; one FMN per subunit"}, "purified protein [3]": {"substrate": "CC[C@H](O)C(=O)O", "assay": "purified protein", "type": "biochemical, Stutzerimonas stutzeri", "conditions": "apparent, fixed 0.2 mM MTT as electron acceptor, 50 mM Tris-HCl pH 7.5, 30°C"}, "purified protein [4]": {"substrate": "C[C@H](O)C(=O)O", "assay": "purified protein", "type": "biochemical, Stutzerimonas stutzeri", "conditions": "apparent, fixed 0.2 mM MTT as electron acceptor, 50 mM Tris-HCl pH 7.5, 30°C"}}, "data": [{"molecule": "NC(=O)C(=O)O", "note": "[oxamate]", "values": [{"measurement": "Ki", "setting": "[1]", "result": "29 ± 1.7", "unit": "mM"}]}, {"molecule": "Cc1cc2nc3c(=O)[nH]c(=O)nc-3n(C[C@H](O)[C@H](O)[C@H](O)COP(=O)(O)O)c2cc1C", "note": "[FMN]", "values": [{"measurement": "HPLC of flavin released by boiling; UV-visible spectrum", "setting": "[2]", "result": "the native enzyme contains one FMN per subunit"}]}, {"molecule": "O=C(O)C(=O)O", "note": "[oxalate]", "values": [{"measurement": "Ki", "setting": "[1]", "result": "1.9 ± 0.1", "unit": "mM"}]}, {"molecule": "L-iLDH (NAD-independent L-lactate dehydrogenase) from P. stutzeri SDM (Stutzerimonas stutzeri) (protein, full-length lldD in pETDuet-1 (HindIII/XhoI), expressed in E. coli C43(DE3), HisTrap purified (tag not described); also purified natively from membrane with Triton X-100; one FMN per subunit) MIISASTDYRAAAKRKLPPFLFHYVDGGAYAEHTLRRNVEDLASIALRQRVLRNMSELSLETQLFGETLSMPVALAPVGLTGMLARRGEVQAARAADKKGIPFTLSTVSVCPIEEVAPAIKRPMWFQLYVLKDRGFMKNALERAKAAGVTTLVFTVDMPTPGARYRDAHSGMSGPNASVRRILQAMAHPLWAWDVGLHGKPHDLGNITTYRGHTTGLEDYIGWLAANFDPSISWKDLEWIREFWDGPMVIKGILDAEDARDAVTFGADGIIVSNHGGRQLDGVMSSARAMPAIADAVKGDLKILADSGIRNGLDVVRMIALGADTVLLGRAFAYALAVDGEAGVTNLLDLIEKEMRVAMVLTGTKTISEISADSLVREVGHYQTATTSADV", "values": [{"measurement": "Km", "setting": "purified protein [3]", "result": "99 ± 3.9", "unit": "µM"}, {"measurement": "Km", "setting": "purified protein [4]", "result": "29 ± 0.65", "unit": "µM"}]}]}
